How the values were obtained:
[1] = biological target: Serine/threonine-protein kinase Nek6 (Homo sapiens, UniProt Q9HC98)
[2] = biological target: T1, Receptor-type tyrosine-protein kinase FLT3 (Homo sapiens, UniProt P36888)
T1 sequence (P36888 whole entry): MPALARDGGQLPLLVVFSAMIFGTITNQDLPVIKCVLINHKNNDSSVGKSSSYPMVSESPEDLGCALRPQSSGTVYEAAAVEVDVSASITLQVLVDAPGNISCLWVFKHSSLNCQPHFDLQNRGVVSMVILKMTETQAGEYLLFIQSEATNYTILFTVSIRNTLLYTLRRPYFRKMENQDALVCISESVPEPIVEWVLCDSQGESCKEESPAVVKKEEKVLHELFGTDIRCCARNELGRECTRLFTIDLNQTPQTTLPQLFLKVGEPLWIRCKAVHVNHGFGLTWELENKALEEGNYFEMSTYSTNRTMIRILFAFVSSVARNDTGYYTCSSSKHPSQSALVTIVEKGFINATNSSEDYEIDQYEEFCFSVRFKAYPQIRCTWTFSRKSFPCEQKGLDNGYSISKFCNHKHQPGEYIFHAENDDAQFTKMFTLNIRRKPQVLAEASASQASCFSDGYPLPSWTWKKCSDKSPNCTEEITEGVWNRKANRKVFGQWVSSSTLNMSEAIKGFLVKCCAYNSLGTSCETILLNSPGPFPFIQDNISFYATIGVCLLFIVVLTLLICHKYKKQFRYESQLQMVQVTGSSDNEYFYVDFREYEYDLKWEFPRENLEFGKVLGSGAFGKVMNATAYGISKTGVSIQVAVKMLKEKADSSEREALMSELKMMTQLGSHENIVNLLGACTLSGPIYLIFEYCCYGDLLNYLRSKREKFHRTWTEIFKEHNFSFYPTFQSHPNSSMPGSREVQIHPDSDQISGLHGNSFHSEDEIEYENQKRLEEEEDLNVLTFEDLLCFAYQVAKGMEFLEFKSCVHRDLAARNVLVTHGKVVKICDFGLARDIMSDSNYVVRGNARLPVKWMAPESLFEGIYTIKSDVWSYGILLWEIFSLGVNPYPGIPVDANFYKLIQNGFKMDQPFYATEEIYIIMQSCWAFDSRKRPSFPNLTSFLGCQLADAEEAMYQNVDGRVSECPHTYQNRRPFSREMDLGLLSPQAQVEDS

Ephrin type-A receptor 4 = Ephrin type-A receptor 4 (Homo sapiens, UniProt P54764)
[3] = biological target: Tyrosine-protein kinase HCK (Homo sapiens, UniProt P08631)
[4] = biological target: Calcium/calmodulin-dependent protein kinase type II subunit gamma (Homo sapiens, UniProt Q13555)
[5] = biological target: Serine/threonine-protein kinase pim-1 (Homo sapiens, UniProt P11309)
Activated CDC42 kinase 1 = Activated CDC42 kinase 1 (Homo sapiens, UniProt Q07912)
[6] = biological target: Vascular endothelial growth factor receptor 2 (Homo sapiens, UniProt P35968)
[7] = biological target: T2, Serine/threonine-protein kinase 3 (Mus musculus, UniProt Q9JI10)
T2 sequence (Q9JI10 whole entry): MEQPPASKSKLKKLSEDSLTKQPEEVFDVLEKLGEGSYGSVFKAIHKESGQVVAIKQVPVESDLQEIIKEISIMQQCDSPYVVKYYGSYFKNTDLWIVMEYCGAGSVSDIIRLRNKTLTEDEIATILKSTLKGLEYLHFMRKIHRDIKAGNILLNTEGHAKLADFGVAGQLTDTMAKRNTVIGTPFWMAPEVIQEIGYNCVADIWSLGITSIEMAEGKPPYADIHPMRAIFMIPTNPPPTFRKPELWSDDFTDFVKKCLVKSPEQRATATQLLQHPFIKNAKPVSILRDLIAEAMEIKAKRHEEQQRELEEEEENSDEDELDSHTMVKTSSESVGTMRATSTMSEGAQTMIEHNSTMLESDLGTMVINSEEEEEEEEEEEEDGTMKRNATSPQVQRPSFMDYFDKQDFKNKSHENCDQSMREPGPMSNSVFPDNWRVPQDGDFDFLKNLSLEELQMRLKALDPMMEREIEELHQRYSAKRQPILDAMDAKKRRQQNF

[8] = biological target: Death-associated protein kinase 3 (Homo sapiens, UniProt O43293)
[9] = biological target: Ribosomal protein S6 kinase alpha-3 (Homo sapiens, UniProt P51812)
[10] = biological target: Receptor-interacting serine/threonine-protein kinase 2 (Homo sapiens, UniProt O43353)

Measured: Kd

Death-associated protein kinase 3, sequence (O43293 whole entry): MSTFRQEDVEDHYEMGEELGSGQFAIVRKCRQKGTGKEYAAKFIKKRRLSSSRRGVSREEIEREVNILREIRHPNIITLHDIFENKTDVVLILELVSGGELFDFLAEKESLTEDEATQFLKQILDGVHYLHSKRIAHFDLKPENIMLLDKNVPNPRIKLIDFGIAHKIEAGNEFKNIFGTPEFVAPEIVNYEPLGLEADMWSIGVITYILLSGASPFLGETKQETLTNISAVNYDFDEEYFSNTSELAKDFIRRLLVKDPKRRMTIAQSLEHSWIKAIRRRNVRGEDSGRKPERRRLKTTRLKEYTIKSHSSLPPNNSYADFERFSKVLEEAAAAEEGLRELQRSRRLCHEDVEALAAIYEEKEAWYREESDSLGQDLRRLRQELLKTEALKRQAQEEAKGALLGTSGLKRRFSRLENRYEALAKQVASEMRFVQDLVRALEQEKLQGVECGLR
Tyrosine-protein kinase HCK, sequence (P08631 whole entry): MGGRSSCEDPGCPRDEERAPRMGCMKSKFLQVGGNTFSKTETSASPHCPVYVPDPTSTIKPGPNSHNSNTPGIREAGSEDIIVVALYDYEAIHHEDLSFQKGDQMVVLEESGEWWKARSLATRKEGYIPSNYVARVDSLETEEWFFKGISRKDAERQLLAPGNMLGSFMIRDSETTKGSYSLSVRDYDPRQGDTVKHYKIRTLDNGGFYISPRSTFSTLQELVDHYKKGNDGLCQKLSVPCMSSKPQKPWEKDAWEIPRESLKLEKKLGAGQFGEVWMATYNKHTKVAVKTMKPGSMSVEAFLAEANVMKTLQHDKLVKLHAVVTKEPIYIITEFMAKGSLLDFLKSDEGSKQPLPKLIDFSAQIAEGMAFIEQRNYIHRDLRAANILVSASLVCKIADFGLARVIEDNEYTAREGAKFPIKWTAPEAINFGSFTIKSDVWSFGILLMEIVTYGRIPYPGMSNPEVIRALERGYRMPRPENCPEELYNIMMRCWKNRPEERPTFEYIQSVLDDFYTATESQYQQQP
Activated CDC42 kinase 1, sequence (Q07912 whole entry): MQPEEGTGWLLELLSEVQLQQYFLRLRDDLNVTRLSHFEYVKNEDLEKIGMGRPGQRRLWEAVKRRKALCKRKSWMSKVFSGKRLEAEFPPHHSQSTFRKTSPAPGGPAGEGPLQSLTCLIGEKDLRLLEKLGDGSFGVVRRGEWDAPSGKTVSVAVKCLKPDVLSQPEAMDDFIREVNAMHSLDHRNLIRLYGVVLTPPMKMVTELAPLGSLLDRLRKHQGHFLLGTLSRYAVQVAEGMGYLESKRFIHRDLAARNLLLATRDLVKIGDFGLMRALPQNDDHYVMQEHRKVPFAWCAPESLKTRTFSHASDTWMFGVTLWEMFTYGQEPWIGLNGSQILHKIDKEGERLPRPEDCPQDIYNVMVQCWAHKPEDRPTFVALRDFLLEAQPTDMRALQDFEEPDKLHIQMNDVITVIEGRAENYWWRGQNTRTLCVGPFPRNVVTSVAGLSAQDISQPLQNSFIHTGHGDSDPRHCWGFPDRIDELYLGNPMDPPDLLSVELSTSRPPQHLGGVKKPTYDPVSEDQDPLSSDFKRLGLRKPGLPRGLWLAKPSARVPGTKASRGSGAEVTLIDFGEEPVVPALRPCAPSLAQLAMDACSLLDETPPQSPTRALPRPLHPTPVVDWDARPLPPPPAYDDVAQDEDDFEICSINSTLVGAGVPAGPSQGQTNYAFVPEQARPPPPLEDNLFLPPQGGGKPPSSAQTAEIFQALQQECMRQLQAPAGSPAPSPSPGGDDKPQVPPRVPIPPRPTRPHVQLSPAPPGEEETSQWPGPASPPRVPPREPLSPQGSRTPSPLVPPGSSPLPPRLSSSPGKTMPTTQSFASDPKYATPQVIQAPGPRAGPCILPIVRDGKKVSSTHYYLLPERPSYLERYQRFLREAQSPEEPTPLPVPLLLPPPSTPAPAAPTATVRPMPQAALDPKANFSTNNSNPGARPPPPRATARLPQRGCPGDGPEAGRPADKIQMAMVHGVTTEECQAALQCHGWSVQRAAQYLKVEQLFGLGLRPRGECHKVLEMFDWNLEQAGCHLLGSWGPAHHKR
Calcium/calmodulin-dependent protein kinase type II subunit gamma, sequence (Q13555 whole entry): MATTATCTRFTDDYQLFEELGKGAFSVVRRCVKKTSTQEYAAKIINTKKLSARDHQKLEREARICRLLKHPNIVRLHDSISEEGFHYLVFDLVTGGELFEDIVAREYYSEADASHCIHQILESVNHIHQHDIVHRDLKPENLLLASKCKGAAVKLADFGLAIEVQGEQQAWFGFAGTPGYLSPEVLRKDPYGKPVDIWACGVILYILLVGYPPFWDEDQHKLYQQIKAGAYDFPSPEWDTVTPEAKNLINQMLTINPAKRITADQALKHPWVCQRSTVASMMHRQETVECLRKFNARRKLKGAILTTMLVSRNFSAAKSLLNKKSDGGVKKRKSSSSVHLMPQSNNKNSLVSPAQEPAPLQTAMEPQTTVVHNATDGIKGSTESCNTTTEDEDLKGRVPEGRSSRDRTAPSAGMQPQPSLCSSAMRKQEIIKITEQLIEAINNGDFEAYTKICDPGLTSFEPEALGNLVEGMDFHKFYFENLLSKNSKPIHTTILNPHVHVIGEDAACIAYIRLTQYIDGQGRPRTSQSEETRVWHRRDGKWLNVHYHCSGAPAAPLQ
Ephrin type-A receptor 4, sequence (P54764 whole entry): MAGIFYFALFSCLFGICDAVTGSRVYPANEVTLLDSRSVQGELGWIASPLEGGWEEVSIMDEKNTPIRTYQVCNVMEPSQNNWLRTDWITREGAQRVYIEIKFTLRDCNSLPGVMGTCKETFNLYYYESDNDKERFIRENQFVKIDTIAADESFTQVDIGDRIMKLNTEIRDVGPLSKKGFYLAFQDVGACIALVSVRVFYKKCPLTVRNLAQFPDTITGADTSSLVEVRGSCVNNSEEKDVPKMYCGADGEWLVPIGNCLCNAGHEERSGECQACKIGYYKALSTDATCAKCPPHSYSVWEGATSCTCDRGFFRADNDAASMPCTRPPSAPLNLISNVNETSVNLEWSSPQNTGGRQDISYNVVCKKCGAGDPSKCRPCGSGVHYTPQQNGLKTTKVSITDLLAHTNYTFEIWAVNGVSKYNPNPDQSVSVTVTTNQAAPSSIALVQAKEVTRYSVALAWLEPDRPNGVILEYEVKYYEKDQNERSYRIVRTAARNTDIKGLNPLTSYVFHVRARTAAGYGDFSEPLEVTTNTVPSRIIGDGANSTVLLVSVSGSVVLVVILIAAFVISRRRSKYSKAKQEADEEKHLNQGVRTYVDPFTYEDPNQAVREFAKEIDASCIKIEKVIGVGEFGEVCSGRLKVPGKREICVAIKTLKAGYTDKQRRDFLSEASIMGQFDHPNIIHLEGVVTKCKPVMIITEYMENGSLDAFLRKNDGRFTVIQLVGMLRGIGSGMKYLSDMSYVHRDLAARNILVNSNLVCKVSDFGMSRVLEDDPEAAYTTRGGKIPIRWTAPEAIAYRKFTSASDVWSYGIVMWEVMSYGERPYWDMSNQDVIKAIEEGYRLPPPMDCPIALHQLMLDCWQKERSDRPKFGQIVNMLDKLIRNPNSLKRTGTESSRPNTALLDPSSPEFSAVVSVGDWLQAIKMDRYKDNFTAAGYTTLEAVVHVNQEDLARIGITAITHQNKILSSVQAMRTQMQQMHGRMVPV
Serine/threonine-protein kinase Nek6, sequence (Q9HC98 whole entry): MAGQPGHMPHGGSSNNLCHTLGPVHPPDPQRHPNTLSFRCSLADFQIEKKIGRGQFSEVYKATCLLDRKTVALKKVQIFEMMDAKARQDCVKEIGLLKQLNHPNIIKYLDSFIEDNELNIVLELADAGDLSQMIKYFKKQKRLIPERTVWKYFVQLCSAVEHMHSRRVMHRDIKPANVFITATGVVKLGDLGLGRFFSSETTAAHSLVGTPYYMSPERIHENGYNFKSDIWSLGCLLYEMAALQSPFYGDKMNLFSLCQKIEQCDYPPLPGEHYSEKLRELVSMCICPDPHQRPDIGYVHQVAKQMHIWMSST
Ribosomal protein S6 kinase alpha-3, sequence (P51812 whole entry): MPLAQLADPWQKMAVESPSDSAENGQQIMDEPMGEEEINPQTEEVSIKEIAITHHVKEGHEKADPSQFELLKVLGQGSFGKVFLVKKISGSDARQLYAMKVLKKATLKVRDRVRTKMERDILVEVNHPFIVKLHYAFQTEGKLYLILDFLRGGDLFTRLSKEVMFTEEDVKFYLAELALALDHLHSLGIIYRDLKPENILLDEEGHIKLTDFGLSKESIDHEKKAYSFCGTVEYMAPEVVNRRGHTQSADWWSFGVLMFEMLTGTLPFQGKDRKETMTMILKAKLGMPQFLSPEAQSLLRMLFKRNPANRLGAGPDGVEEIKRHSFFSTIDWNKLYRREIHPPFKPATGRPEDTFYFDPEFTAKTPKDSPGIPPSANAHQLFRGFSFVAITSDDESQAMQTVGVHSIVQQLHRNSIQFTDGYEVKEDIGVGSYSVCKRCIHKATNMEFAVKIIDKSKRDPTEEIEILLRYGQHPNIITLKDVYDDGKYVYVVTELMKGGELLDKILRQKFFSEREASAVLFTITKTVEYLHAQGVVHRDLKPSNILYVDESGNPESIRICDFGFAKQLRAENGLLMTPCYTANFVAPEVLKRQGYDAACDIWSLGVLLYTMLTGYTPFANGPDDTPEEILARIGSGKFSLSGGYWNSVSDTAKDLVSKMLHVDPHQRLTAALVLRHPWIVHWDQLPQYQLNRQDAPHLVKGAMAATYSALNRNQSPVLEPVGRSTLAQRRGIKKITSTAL
Serine/threonine-protein kinase pim-1, sequence (P11309 whole entry): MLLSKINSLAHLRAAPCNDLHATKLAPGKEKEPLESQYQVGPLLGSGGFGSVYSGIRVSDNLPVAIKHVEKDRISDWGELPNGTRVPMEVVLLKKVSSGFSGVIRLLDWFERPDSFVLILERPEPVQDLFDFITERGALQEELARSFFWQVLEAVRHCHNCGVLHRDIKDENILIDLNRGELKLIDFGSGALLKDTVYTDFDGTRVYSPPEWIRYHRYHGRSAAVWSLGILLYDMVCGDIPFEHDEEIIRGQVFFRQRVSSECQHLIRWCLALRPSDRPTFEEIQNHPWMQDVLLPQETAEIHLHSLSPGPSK

C#Cc1cccc(Nc2ncnc3cc(OCCOC)c(OCCOC)cc23)c1 [ERLOTINIB]
not listed: [10]
Not Active: all other assays above

COc1cc2c(N3CCN(C(=O)Nc4ccc(OC(C)C)cc4)CC3)ncnc2cc1OCCCN1CCCCC1 [TANDUTINIB]
not listed: [2] | [6]
Not Active: all other assays above

O=c1ncn2nc(Sc3ccc(F)cc3F)ccc2c1-c1c(Cl)cccc1Cl [NEFLAMAPIMOD]
not listed: Ephrin type-A receptor 4 | [3] | [6]
Not Active: all other assays above

C[S+]([O-])c1ccc(-c2nc(-c3ccc(F)cc3)c(-c3ccncc3)[nH]2)cc1 (centres undefined) [SB-203580]
not listed: [10]
Not Active: all other assays above

Cc1ccc(NC(=O)c2ccc(CN3CCN(C)CC3)cc2)cc1Nc1nccc(-c2cccnc2)n1 [IMATINIB]
Not Active: all assays above

CC[C@H](CO)Nc1nc(NCc2ccccc2)c2ncn(C(C)C)c2n1 [SELICICLIB]
Not Active: all assays above

Oc1ccc(-c2nc(-c3ccc(F)cc3)c(-c3ccncc3)[nH]2)cc1 [SB-202190]
not listed: [10]
Not Active: all other assays above

CCOc1cc2ncc(C#N)c(Nc3ccc(F)c(Cl)c3)c2cc1NC(=O)/C=C/CN(C)C [PELITINIB]
not listed: [3] | Activated CDC42 kinase 1 | [7] | [8]
Not Active: all other assays above

Oc1c2ccccc2c2c3c(cccc13)N=N2 [SP-600125]
not listed: [7] | [8]
Not Active: all other assays above

Reference: ChEMBL document CHEMBL1144455, “A small molecule-kinase interaction map for clinical kinase inhibitors” (Nat Biotechnol, 2005)
